Source: US20030194738A1, “Antisense oligonucleotide compositions and methods for the modulation of activating protein 1” (priority 1997, published 2003)
Entries after “also recorded” stand apart in the source; their conditions may differ. Strand notation (5' to 3'): a small letter for the sugar, then the base; units joined by * are phosphorothioate-linked, units joined directly phosphodiester-linked; [ ] holds rarer units or linkages, { } end groups; capitals alone tell only the bases. d = 2'-deoxy (DNA)

Experiments:
c-jun mRNA = c-jun mRNA expression in TPA-induced A549 cells, Northern blotting; type: cell-based, human; settings: for c-jun (mRNA level, specificity experiment): Table 5, TPA - no oligo = 100, basal = 23; for c-jun (mRNA level, specificity experiment) / effect on c-jun mRNA levels during TPA induction (in words) / c-jun mRNA LEVELS (% CONTROL): A549 cells; for c-jun mRNA LEVELS (% CONTROL): TPA induction, 1 hour
Procedure: In order to evaluate the activity of potential c-fos and c-jun modulating oligonucleotides, A549 cells were grown in T-75 flasks until 80-90% confluent. (Cell line A549 is available from, inter alia, the American Type Culture Collection, Rockville, Md., as ATCC No. CCL-185.) At this time, the cells were washed twice with 10 mL of media (DMEM), followed by the addition of 5 mL of DMEM containing 20 μg/mL of LIPOFECTIN™ (i.e., DOTMA/DOPE (N-[1-(2,3-dioleyloxy)propyl]-N,N,N-[…] chloride/dioleoylphosphatidyl ethanolamine)). […] After 4 hours at 37° C., the medium was replaced with DMEM containing 10% serum. At this point, 1 μM 12-O-tetradecanoylphorbol 13-acetate (TPA) was added to induce expression of c-fos and c-jun. Cells were extracted in guanidinium one hour later, and the c-fos and c-jun mRNA expression was determined by Northern blotting. Probes for human c-jun and c-fos were PCR products prepared using primers based on the published sequences thereof (respectively, Hattori et al., Proc. Natl. Acad. Sci. U.S.A., 1988, 85:9148, and Van Straaten et al., Proc. Natl. Acad. Sci. U.S.A., 1983, 80:3183).

c-fos mRNA = c-fos mRNA expression in TPA-induced A549 cells, Northern blotting; type: cell-based, human; settings: A549 cells; for c-fos (mRNA level, specificity experiment): Table 5, TPA - no oligo = 100, basal = 5
Procedure: In order to evaluate the activity of potential c-fos and c-jun modulating oligonucleotides, A549 cells were grown in T-75 flasks until 80-90% confluent. (Cell line A549 is available from, inter alia, the American Type Culture Collection, Rockville, Md., as ATCC No. CCL-185.) At this time, the cells were washed twice with 10 mL of media (DMEM), followed by the addition of 5 mL of DMEM containing 20 μg/mL of LIPOFECTIN™ (i.e., DOTMA/DOPE (N-[1-(2,3-dioleyloxy)propyl]-N,N,N-[…] chloride/dioleoylphosphatidyl ethanolamine)). The oligonucleotides were added from a 10 μM stock solution to a final concentration of 400 nM, and the two solutions were mixed by swirling the flasks. After 4 hours at 37° C., the medium was replaced with DMEM containing 10% serum. At this point, 1 μM 12-O-tetradecanoylphorbol 13-acetate (TPA) was added to induce expression of c-fos and c-jun. Cells were extracted in guanidinium one hour later, and the c-fos and c-jun mRNA expression was determined by Northern blotting. Probes for human c-jun and c-fos were PCR products prepared using primers based on the published sequences thereof (respectively, Hattori et al., Proc. Natl. Acad. Sci. U.S.A., 1988, 85:9148, and Van Straaten et al., Proc. Natl. Acad. Sci. U.S.A., 1983, 80:3183).
Finally, it can also be seen from Table 5 that neither active oligonucleotide has any detectable effect on mRNA levels of the other active oligonucleotide's target.
Once oligonucleotides that modulate c-Fos or c-Jun are identified, derivative or modified oligonucleotides having the same sequence thereas are prepared. In order to evaluate the effect of chemical modifications to oligonucleotides to c-fos and c-jun, the modified oligonucleotides described in Tables 8 and 9 were prepared. The effect of the c-fos-targeted oligonucleotides on c-fos RNA levels were evaluated as described in Examples 2-3. […] Other modified oligonucleotides of the invention are evaluated in like fashion. In order to evaluate the effect of PNA antisense analogs, the PNA analogs of the invention are introduced into appropriate cell lines by microinjection according to the method of Hanvey et al. (Science, 1992, 258:1481). Intracellular delivery of PNA analogs is confirmed by the use of a fluorescently tagged PNA antisense analog conjugate such as, e.g., ISIS 14240.

c-Fos protein = c-Fos protein levels in TPA-induced A549 cells, immunoblot; type: cell-based, human; settings: Table 7; TPA (1 uM) for three hours; TPA - no oligo = 100, basal = 21
Procedure: The ability of the c-fos active oligonucleotide ISIS 10639 to reduce expression of the c-Fos protein was examined as follows. A549 cells were treated with oligonucleotides as in Examples 2-3, except that induction of c-Fos was effected by treatment of cells with TPA (1 uM) for three hours. At this time, whole cell protein was extracted in SDS (sodium dodecyl sulfate) buffer. Samples of extracts were electrophoresed, transferred to nitrocellulose filters which were immunoblotted using a c-Fos-specific antibody (Santa Cruz AB, Santa Cruz, Calif.).

MMP-9 = MMP-9 expression in TPA-induced normal human epidermal keratinocytes; type: cell-based; settings: for MMP-9 (expression): Table 17, NHEK cells harvested 24 hours after TPA treatment for 4 hours, TPA - no oligo = 100, basal = 4
Text: The matrix metalloproteinases (MMPs) are a family of enzymes which have the ability to degrade components of the extracellular matrix (Birkedal-Hansen, Current Op. Biol., 1995, 7, 728). […] In particular, one member of this family, matrix metalloproteinase-9 (MMP-9), is often found to be expressed only in tumors and other diseased tissues (Himeistein et al., Invasion & Metastasis, 1994, 14, 246). Several studies have shown that regulation of the MMP-9 gene may be controlled by the AP-1 transcription factor (Kerr et al., Science, 1988, 242, 1242; Kerr et al., Cell, 1990, 61, 267; Gum et al., J. Biol. Chem., 1996, 271, 10672; Hua et al., Cancer Res., 1996, 56, 5279). In order to determine whether MMP-9 expression can be influenced by AP-1 modulation, the following experiments were conducted on normal human epidermal keratinocytes (NHEKs). Although NHEKs normally express no detectable MMP-9, MMP-9 can be induced by a number of stimuli, including TPA. ISIS 10582, an oligonucleotide targeted to c-jun, was evaluated for its ability to modulate MMP-9 expression according to the protocols described in Examples 2-3 with the following exceptions: (1) NHEK cells were used instead of A549 cells, (2) the probe used, a PCR product prepared using the published sequence of the MMP-9 gene (Huhtala et al., J. Biol. Chem., 1991, 266:16485; Sato et al., Oncogene, 1993, 8:395), is specific for MMP-9 rather than c-jun, and (3) the cells were harvested 24 hours after TPA treatment for 4 hours.

c-Jun = assay: Induction of c-Jun by TNF-a, IL-1b or TGF-b in A549 cells; type: cell-based, human; settings: for c-Jun induction by IL-1b: inducer IL-1b 10 ng/ml, No Oligo = 100, basal = 9; for c-Jun induction by TGF-b: inducer TGF-b 10 ng/ml, No Oligo = 100, basal = 2; for c-Jun induction by TNF-a: inducer TNF-a 10 ng/ml, No Oligo = 100, basal = 5
Procedure: Inducing agents other than TPA function to raise AP-1 levels in vivo. In order to assess the ability of oligonucleotides targeted to AP-1 to antagonize the action of three such inducers, A549 cells were treated and evaluated as in Examples 2 et seq. with the exception that TNF-a, IL-1b or TGE-b (each at 10 ng/mi and all from R&D Systems, Minneapolis, Minn.) were used in place of TPA as inducers.

Substance | c-jun (mRNA level, specificity experiment) (c-jun mRNA) | effect on c-fos mRNA levels during TPA induction (in words) (c-fos mRNA) | c-fos (mRNA level, specificity experiment) (c-fos mRNA) | c-Fos (protein level) (c-Fos protein) | MMP-9 (expression) (MMP-9) | further results
GCT-GTG-GGC-CTC-AAG-GAC-TT (GCTGTGGGCCTCAAGGACTT; antisense; DNA, all phosphorothioate, methylation of C not given here) [ISIS 11184] | 91 | no detectable effect | 84 | 97 | – | –
TCG-GCA-CCT-GAA-GGA-CTT-TC (dT*dC*dG*dG*dC*dA*dC*dC*dT*dG*dA*dA*dG*dG*dA*dC*dT*dT*dT*dC; antisense) [ISIS 11564] | 71 | – | 99 | – | 89 | effect on c-jun mRNA levels during TPA induction (in words) (c-jun mRNA): no detectable effect
TCA-GCC-CCC-GAC-GGT-CTC-TC (dT*dC*dA*dG*dC*dC*dC*dC*dC*dG*dA*dC*dG*dG*dT*dC*dT*dC*dT*dC; antisense) [ISIS 10582] | 4 | no detectable effect | 91 | – | 6 | c-jun mRNA LEVELS (% CONTROL) (c-jun mRNA; 50 nM oligonucleotide): 72 % CONTROL; c-jun mRNA LEVELS (% CONTROL) (c-jun mRNA; 100 nM oligonucleotide): 45.5 % CONTROL; c-jun mRNA LEVELS (% CONTROL) (c-jun mRNA; 200 nM oligonucleotide): 29.5 % CONTROL; c-jun mRNA % CONTROL (c-jun mRNA; 400 nM oligonucleotide with LIPOFECTIN, control is TPA induction, at 1 hour, in A549 cells): 17 % CONTROL; inhibition of c-jun mRNA expression (c-jun mRNA; 400 nM oligonucleotide, TPA-induced A549 cells): 83%; c-jun mRNA LEVELS (% CONTROL) (c-jun mRNA; 400 nM oligonucleotide): 16 % CONTROL; effect on c-jun mRNA levels during TPA induction (in words) (c-jun mRNA): dose-dependent; also recorded: potent and specific inhibition; expression of MMP-9 after induction with TPA (in words) (MMP-9; NHEK cells): completely inhibit; stimulation / induction of c-Jun by TNF-a or IL-1b (in words) (c-Jun): effectively reduces; c-Jun induction by IL-1b (c-Jun): 15; c-Jun induction by TGF-b (c-Jun): 95; c-Jun induction by TNF-a (c-Jun): 20
ATG-TGC-TAG-ATG-CGC-AAA-GT (ATGTGCTAGATGCGCAAAGT; antisense; DNA, all phosphorothioate, methylation of C not given here) [ISIS 11185] | 98 | no detectable effect | 93 | 91 | – | –
CAC-CTC-CAC-GCG-CTT-CTG-GC (dC*dA*dC*dC*dT*dC*dC*dA*dC*dG*dC*dG*dC*dT*dT*dC*dT*dG*dG*dC; antisense) [ISIS 11563] | – | – | 99 | – | 95 | stimulation / induction of c-Jun by TNF-a or IL-1b (in words) (c-Jun): did not reverse; c-Jun induction by IL-1b (c-Jun): 94; c-Jun induction by TGF-b (c-Jun): 99; c-Jun induction by TNF-a (c-Jun): 98
GAG-AGA-CCG-TCG-GGC-GCT-GA (GAGAGACCGTCGGGGGCTGA; listed as DNA, chemistry not given here) [ISIS 11562] | – | – | 89 | – | 99 | –
ACG-TCC-GAT-TCC-GAG-CGC-AA (ACGTCCGATTCCGAGCGCAA; antisense; DNA, all phosphorothioate, methylation of C not given here) [ISIS 11186] | 99 | no detectable effect | 98 | 99 | – | –
